Measured values: patent US12122811B2, “BDNF mimetic peptide amphiphiles” (Northwestern University, priority 2018, dated 2024)
Positions of bridges follow the written chain, without caps; N, C: chain ends. Non-standard residues stand in square brackets, D forms with d. Residues, ends and D or L forms follow the SMILES beside them. Chains are numbered I, II in the order given. *: point of attachment. PEG6 = NCCOCCOCCOCCOCCOCCOCCC(=O)O; Palmitoyl = CCCCCCCCCCCCCCCC(=O)*

How the values were obtained:
[1] = test system: cortical neurons; assay: Infiltration and maturation of cortical neurons on 3D PA gel scaffolds; format: cell-based, mouse; settings: neurons on gels, one week
Method: Gels were made using annealed PAs prepared with methods described herein 1. BDNF native protein or BDNF peptide were incorporated by mixing at 10 nM or 0.5 uM respectively, with E2 Filler PA gel at 1 wt % while it was in its liquid state. Silicon isolators with adhesive (Invitrogen) were placed on PDL coated glass coverslips. 70 μL of PA liquid was pipetted into the circular silicon well and a Transwell insert was placed flush with the top of the well of the silicon insert. This step ensured a flat, even thickness for all gels. Gelling solution comprised of 125 mM NaCl, 3 mM KCl, and 25 mM CaCl2 was pipetted into the Transwell insert and allowed to slowly soak down into the material from the top. The insert prevented the gel from swelling more than the thickness of the silicon isolator. All gels were incubated at 37° C. for 5 min before removing the Transwell insert.
Infiltration Study. Gels were prepared as described in 2.1.2. Gels were then rinsed with media one time before cells were seeded on top at a density of approximately 42,000 cells/well. Cells were cultured for one week in vitro. Half of the gels were analyzed by patch clamp analysis (see section 3.4.9. Other gels were fixed with 4% PFA to perform infiltration studies. Cell were stained for MAP2, TUJ-1 and DAPI using immunocytochemistry methods described previously. Confocal microscopy was used to make z-stack reconstructions of each gel. The MultiMeasure function in the ROI manager of ImageJ was used to measure the depth of pixels for each channel which was then plotted as intensity vs depth in the gel. The average intensity of MAP2 was measured by averaging the mean intensities obtained from maximum intensity projections of z-stacks images of gels.

[2] = Dynamic light scattering (DLS); format: physicochemical; settings: BDNF PA at 100 mol %
Method: 2.2.2. Dynamic Light Scattering (DLS). Measurements were performed on a Malvern Zetasizer Nano ZSP light scattering spectrometer. Samples were prepared as previously described. During the sample measurement, the temperature was kept at 25° C. The sample was equilibrated for 30 seconds before each measurement was taken. The duration of each measurement was 10 seconds and the measurement angle was 173° backscatter. The attenuator was determined by the instrument automatically, as was the number of accumulations for each run. Each measurement run was repeated 3 times.

CCCCCCCCCCCCCCCC(=O)N[C@H](C(=O)N[C@H](C(=O)N[C@@H](C)C(=O)N[C@@H](C)C(=O)N[C@@H](CCC(=O)O)C(=O)N[C@@H](CCC(=O)O)C(=O)N[C@@H](CCC(=O)O)C(=O)N[C@@H](CCC(=O)O)C(=O)NCCOCCOCCOCCOCCOCCOCCC(=O)NCCCC[C@@H]1NC(=O)[C@H]2CCCN2C(=O)[C@H](CCCNC(=N)N)NC(=O)[C@H](CCCCN)NC(=O)[C@H](CCCCN)NC1=O)C(C)C)C(C)C [BDNF PA, RKK(aK)(dP)-(PEG6 Spacer)-EEEEAAVV-C16 (SEQ ID NO: 5)] (I: Palmitoyl-VVAAEEEE[PEG6] / II: cyclo(KKKR[dP]); amide I:C-II:1)
distance that neurites infiltrated from the top of the scaffold [1]: 179.7±6.0 μm | infiltration distance relative to all the other conditions [1]: nearly four-and-a-half times higher | normalized average of MAP2 intensity [1]: 0.64±0.15 | micelle diameter (DLS) [2]: ~12 nm
